Where two headings read alike, the source gives them in different places.
How the values were obtained:
[1] = target: T1, DNA-PK phosphorylation at Serine 2056 (Homo sapiens, UniProt P78527); assay: Cellular Assay for Inhibition of DNA-PK Phosphorylation at Serine 2056 in FaDu cells (sandwich ELISA, neocarzinostatin); format: cell-based; conditions: pSer2056 DNA-PK, Table 3
T1 construct: FaDu cells were purchased from ATCC; host or cells: FaDu
In short: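 FaDu cells pre-treated with compound (0.3% DMSO) for 1 h, then neocarzinostatin 1 μg/mL final added for 2 h to induce DSBs. Protein-normalised lysates read by sandwich ELISA for total and pSer2056 DNA-PK; % inhibition normalised between DMSO and NCS controls, IC50 from variable-slope log(inhibitor) fit.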

[2] = tested on: pH2AX induction in HCT116 ATM-/- multicellular tumour spheroids; assay: Prodrug Radiation Sensitization in Multicellular Tumour Spheroids, inhibition of pH2AX induction following radiation; format: cell-based; conditions: Homo sapiens, HCT-116, 20 Gy
Experimental: Prodrug compounds were assayed to determine their potency in 3D multicellular spheroids in media maintained under 20% vs 5% oxygen. Multicellular tumour spheroids were grown to approximately 0.5 mm in diameter and irradiated with 20 Gy in combination with inhibitor test compounds to determine their potency using HCT 116 and FaDu cell lines. Experiments were carried out in 96 well plates containing 0.7 mls of MEM media containing 10% FBS and 10 mM glucose under 5% CO2 at 37° C. Following dilution of compounds 1:1000 from DMSO stocks, compounds were serially diluted from 10 μM down to 3.5 nM and 5-10 spheroids added. 96 well plates were constantly stirred to avoid spheroids settling during the course of the experiment. Endpoints were pDNA-PK (ser 2056) or pH2AX (ser 139) status in spheroid cryosections taken 1 or 2 hours following radiation and fixed immediately in formalin. Using tumour cell lines deficient in ATM improved the assay signal to noise and gH2AX readout. Using this assay prodrug activity could be compared in the more oxygenated outer spheroid layers versus less oxygenated hypoxic central cell layers.

FaDu cell line = assay: Prodrug Activation in Hypoxic Stirred Tumour Cell Suspensions; conditions: 10 μM, 4 hours
Experimental: Prodrug compounds were assayed to determine their stability and rate of activation in stirred cell suspensions under 0.2 vs 5% oxygen. Compounds were diluted 1:1000 from DMSO stocks to 10 μM final concentration in tumour cell suspensions (1% by cell volume) in MEM media containing 10% FBS, 10 mM glucose & 3.7 g/L sodium bicarbonate. Cell lines assayed included A253, A549, Detroit562, FaDu, HCT116, HEP G2, HT29, SCC25, SCC9, SiHa & TC32. Compounds and cells were then incubated for 4 hours under constant mixing at 37° C. under 5% CO2 and either 0.2 or 5% O2. Following the incubation period cellular activation of the compounds was assayed via MeOH extraction and HPLC quantification.

[3] = 5% O2, inner layers, read-out: Prodrug 5% O2 Inner layers EC50
[4] = 5% O2, outer layers, read-out: Prodrug 5% O2 Outer layers EC50
[5] = 20% O2, outer layers, read-out: Prodrug 20% O2 Outer layers EC50

| SMILES | IC50 [1] [µM] | EC50 [2, 3] [µM] | EC50 [2, 4] [µM] | EC50 [2, 5] [µM] | Fraction of prodrug converted to active form, Hypoxic 0.2% O2 (FaDu cell line) | Fraction of prodrug converted to active form, Oxic 5% O2 (FaDu cell line) |
| --- | --- | --- | --- | --- | --- | --- |
| CC(c1cnn(C)c1[N+](=O)[O-])N(c1cnc2cc(N3CCOCC3)nc(O[C@H]3CC[C@@H](Nc4ncc(OCCN(C)C)cn4)CC3)c2c1)S(C)(=O)=O (stereo partly drawn) [LFA2073, N-[5-[4-[[5-[2-(dimethylamino)ethoxy]pyrimidin-2-yl]amino]cyclohexoxy]-7-morpholino-1,6-naphthyridin-3-yl]-N-[1-(1-methyl-5-nitro-pyrazol-4-yl)ethyl]methanesulfonamide] | 1 to 10 | 0.01 to 0.5 | 1 to 10 | 1 to 10 | B (B is 0.05 to 0.15) | C (C is 0.02 to 0.05) |
| CC(c1cnc([N+](=O)[O-])n1C)N(c1cnc2cc(N3CCOCC3)nc(O[C@H]3CC[C@@H](Nc4ncc(OCCN5CCN(C)CC5)cn4)CC3)c2c1)S(C)(=O)=O (stereo partly drawn) [LFA2060, N-[1-(3-methyl-2-nitro-imidazol-4-yl)ethyl]-N-[5-[4-[[5-[2-(4-methylpiperazin-1-yl)ethoxy]pyrimidin-2-yl]amino]cyclohexoxy]-7-morpholino-1,6-naphthyridin-3-yl]methanesulfonamide] | 10 to 30 | 0.5 to 1 | 1 to 10 | 10 to 100 | A (A is 0.15 to 1) | D (D is 0 to 0.02) |
| Cn1c(CN(c2cnc3cc(N4CCOCC4)nc(OC4CCC(Nc5ncc(N6CCN(CC(F)(F)F)CC6)cn5)CC4)c3c2)S(C)(=O)=O)cnc1[N+](=O)[O-] (stereo not drawn) [LFA2045, N-[(3-methyl-2-nitro-imidazol-4-yl)methyl]-N-[7-morpholino-5-[4-[[5-[4-(2,2,2-trifluoroethyl)piperazin-1-yl]pyrimidin-2-yl]amino]cyclohexoxy]-1,6-naphthyridin-3-yl]methanesulfonamide] | 10 to 30 | 1 to 10 | 1 to 10 | 1 to 10 | D (D is 0 to 0.02) | D (D is 0 to 0.02) |
| Cc1cc(C)nc(N[C@H]2CC[C@@H](Oc3nc(N4CCOCC4)cc4ncc(N(Cc5cnc([N+](=O)[O-])n5C)S(C)(=O)=O)cc34)CC2)n1 [LFA2098, N-[5-[4-[(4,6-dimethylpyrimidin-2-yl)amino]cyclohexoxy]-7-morpholino-1,6-naphthyridin-3-yl]-N-[(3-methyl-2-nitro-imidazol-4-yl)methyl]methanesulfonamide] | 0.1 to 1 | 1 to 10 | 1 to 10 | 1 to 10 | B (B is 0.05 to 0.15) | D (D is 0 to 0.02) |
| Cn1c(COc2cnc3cc(N4CCOCC4)nc(O[C@H]4CC[C@@H](N(C)c5ncccn5)CC4)c3c2)cnc1[N+](=O)[O-] [LFA2071, N-methyl-N-[4-[[3-[(3-methyl-2-nitro-imidazol-4-yl)methoxy]-7-morpholino-1,6-naphthyridin-5-yl]oxy]cyclohexyl]pyrimidin-2-amine] | 10 to 30 | 0.01 to 0.5 | 1 to 10 | 1 to 10 | A (A is 0.15 to 1) | B (B is 0.05 to 0.15) |
| CC(Oc1cnc2cc(N3CCOCC3)nc(O[C@H]3CC[C@@H](Nc4ccccn4)CC3)c2c1)c1cnc([N+](=O)[O-])n1C (stereo partly drawn) [LFA2084, N-[4-[[3-[1-(3-methyl-2-nitro-imidazol-4-yl)ethoxy]-7-morpholino-1,6-naphthyridin-5-yl]oxy]cyclohexyl]pyridin-2-amine] | 10 to 30 | 0.01 to 0.5 | 1 to 10 | 10 to 100 | A (A is 0.15 to 1) | C (C is 0.02 to 0.05) |
| Cn1c(CNS(=O)(=O)c2cnc3cc(N4CCOCC4)nc(O[C@H]4CC[C@@H](Nc5ncc(C(F)(F)F)cn5)CC4)c3c2)cnc1[N+](=O)[O-] [LFA2091, N-[(3-methyl-2-nitro-imidazol-4-yl)methyl]-7-morpholino-5-[4-[[5-(trifluoromethyl)pyrimidin-2-yl]amino]cyclohexoxy]-1,6-naphthyridine-3-sulfonamide] | 10 to 30 | 10 to 100 | 10 to 100 | 10 to 100 | D (D is 0 to 0.02) | D (D is 0 to 0.02) |
| CC(c1cnc([N+](=O)[O-])n1C)N(c1cnc2cc(N3CCOCC3)nc(O[C@H]3CC[C@@H](Nc4cncc(C(F)(F)F)n4)CC3)c2c1)S(C)(=O)=O (stereo partly drawn) [LFA2099, N-[1-(3-methyl-2-nitro-imidazol-4-yl)ethyl]-N-[7-morpholino-5-[4-[[6-(trifluoromethyl)pyrazin-2-yl]amino]cyclohexoxy]-1,6-naphthyridin-3-yl]methanesulfonamide] | 1 to 10 | 10 to 100 | 10 to 100 | 10 to 100 | B (B is 0.05 to 0.15) | D (D is 0 to 0.02) |
| Cn1c(CN(c2cnc3cc(N4CCOCC4)nc(OC4CCC(Nc5ncc(N6CCN(CC(F)F)CC6)cn5)CC4)c3c2)S(C)(=O)=O)cnc1[N+](=O)[O-] (stereo not drawn) [LFA2048, N-[5-[4-[[5-[4-(2,2-difluoroethyl)piperazin-1-yl]pyrimidin-2-yl]amino]cyclohexoxy]-7-morpholino-1,6-naphthyridin-3-yl]-N-[(3-methyl-2-nitro-imidazol-4-yl)methyl]methanesulfonamide] | 10 to 30 | 0.5 to 1 | 1 to 10 | 0.5 to 1 | B (B is 0.05 to 0.15) | D (D is 0 to 0.02) |
| CC(Oc1cnc2cc(N3CCOCC3)nc(O[C@H]3CC[C@@H](Nc4ncc(CN(C)C)cn4)CC3)c2c1)c1cnc([N+](=O)[O-])n1C (stereo partly drawn) [LFA2085, 5-[(dimethylamino)methyl]-N-[4-[[3-[1-(3-methyl-2-nitro-imidazol-4-yl)ethoxy]-7-morpholino-1,6-naphthyridin-5-yl]oxy]cyclohexyl]pyrimidin-2-amine] | 1 to 10 | 1 to 10 | 1 to 10 | 1 to 10 | B (B is 0.05 to 0.15) | D (D is 0 to 0.02) |
| CC(c1cnn(C)c1[N+](=O)[O-])N(c1cnc2cc(N3CCOCC3)nc(O[C@H]3CC[C@@H](Nc4ncc(C#N)cn4)CC3)c2c1)S(C)(=O)=O (stereo partly drawn) [LFA2052, N-[5-[4-[(5-cyanopyrimidin-2-yl)amino]cyclohexoxy]-7-morpholino-1,6-naphthyridin-3-yl]-N-[1-(1-methyl-5-nitro-pyrazol-4-yl)ethyl]methanesulfonamide] | 1 to 10 | 0.01 to 0.5 | 0.5 to 1 | 1 to 10 | B (B is 0.05 to 0.15) | C (C is 0.02 to 0.05) |
| Cn1c(COc2cnc3cc(N4CCOCC4)nc(O[C@H]4CC[C@@H](c5cnccn5)CC4)c3c2)cnc1[N+](=O)[O-] [LFA2042, 4-[3-[(3-methyl-2-nitro-imidazol-4-yl)methoxy]-5-(4-pyrazin-2-ylcyclohexoxy)-1,6-naphthyridin-7-yl]morpholine] | 10 to 30 | 0.01 to 0.5 | 1 to 10 | 1 to 10 | A (A is 0.15 to 1) | C (C is 0.02 to 0.05) |
| CC(c1cnc([N+](=O)[O-])n1C)N(c1cnc2cc(N3CCOCC3)nc(OC3CCC(Nc4ncc(N5CCN(CC(F)F)CC5)cn4)CC3)c2c1)S(C)(=O)=O (stereo not drawn) [LFA2047, N-[5-[4-[[5-[4-(2,2-difluoroethyl)piperazin-1-yl]pyrimidin-2-yl]amino]cyclohexoxy]-7-morpholino-1,6-naphthyridin-3-yl]-N-[1-(3-methyl-2-nitro-imidazol-4-yl)ethyl]methanesulfonamide] | 10 to 30 | 0.01 to 0.5 | 1 to 10 | 1 to 10 | B (B is 0.05 to 0.15) | D (D is 0 to 0.02) |
| CC(c1cnc([N+](=O)[O-])n1C)N(c1cnc2cc(N3CCOCC3)nc(O[C@H]3CC[C@@H](Nc4ncc(CCN5CCOCC5)cn4)CC3)c2c1)S(C)(=O)=O (stereo partly drawn) [LFA2074, N-[1-(3-methyl-2-nitro-imidazol-4-yl)ethyl]-N-[7-morpholino-5-[4-[[5-(2-morpholinoethyl)pyrimidin-2-yl]amino]cyclohexoxy]-1,6-naphthyridin-3-yl]methanesulfonamide] | 1 to 10 | 0.01 to 0.5 | 0.5 to 1 | 1 to 10 | B (B is 0.05 to 0.15) | C (C is 0.02 to 0.05) |
